From the Kinase Knowledgebase extract (Sharma et al. 2016)

Columns and labels:
CDK2 [1] = biological target: CDK2 (UniProt P24941); assay: Enzyme Assay
CDK2 [2] = biological target: CDK2 (UniProt P24941); assay: Enzyme Assay; remark: listed apart in the source

| Structure (SMILES) | IC50 (CDK2 [1]) [µM] | IC50 (CDK2 [2]) [µM] |
| --- | --- | --- |
| CC(C)(C)n1nc(-c2cccc3ccccc23)c2c(N)ncnc21 | 18 | 0.015 |
| COC(=O)[C@@]1(O)C[C@H]2O[C@]1(C)n1c3ccccc3c3c4c(c5c6ccccc6n2c5c31)C(=O)N[C@@H]4Cc1ccccc1 | 10 | 10 |
| CCC(C)[C@@H]1NC(=O)c2c1c1c3ccccc3n3c1c1c2c2ccccc2n1[C@H]1C[C@](O)(C(=O)OC)[C@]3(C)O1 (stereo partly drawn) | 5.8 | > 3.7 |
| COC(=O)[C@@]1(O)C[C@H]2O[C@]1(C)n1c3ccccc3c3c4c(c5c6ccccc6n2c5c31)C(=O)N[C@H]4C(C)C | 29 | 1.9 |
| COC(=O)[C@@]1(O)C[C@H]2O[C@]1(C)n1c3ccccc3c3c4c(c5c6ccccc6n2c5c31)C(=O)N[C@H]4CC(C)C | 22 | 0.07 |

Now those with a lower IC50 (CDK2 [1]), led by results:

| IC50 (CDK2 [1]) [µM] | IC50 (CDK2 [2]) [µM] | Structure (SMILES) |
| --- | --- | --- |
| 1 | 0.15 | COC(=O)[C@@]1(O)C[C@H]2O[C@]1(C)n1c3ccccc3c3c4c(c5c6ccccc6n2c5c31)C(=O)N[C@H]4Cc1ccccc1 |
| 3.7 |  | COC(=O)[C@@]1(O)C[C@H]2O[C@]1(C)n1c3ccccc3c3c4c(c5c6ccccc6n2c5c31)C(=O)N[C@H]4CCc1ccccc1 |
